Laboratory results from PubChem BioAssay (NCI).
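Following 48 hours of exposure in 96-well plates, responses at five concentrations were used to interpolate endpoints linearly. TGI: concentration producing complete growth inhibition.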

What was measured:
Assay in all cases: DTP human tumour cell line panel, 48 h
A498 renal = test system: A498 renal
A549 NSCLC = test system: A549 NSCLC
ACHN renal = test system: ACHN renal
CAKI-1 renal = test system: CAKI-1 renal
DU-145 prostate = test system: DU-145 prostate
HOP-62 NSCLC = test system: HOP-62 NSCLC
HOP-92 NSCLC = test system: HOP-92 NSCLC
K-562 leukemia = test system: K-562 leukemia
LOX IMVI melanoma = test system: LOX IMVI melanoma
MDA-MB-231 breast = test system: MDA-MB-231 breast
MOLT-4 leukemia = test system: MOLT-4 leukemia
NCI-H23 lung = test system: NCI-H23 lung
NCI-H460 lung = test system: NCI-H460 lung
RXF 393 renal = test system: RXF 393 renal
SNB-19 CNS = test system: SNB-19 CNS
SNB-75 CNS = test system: SNB-75 CNS
TK-10 renal = test system: TK-10 renal
RPMI-8226 leukemia = test system: RPMI-8226 leukemia

Row | Compound | TGI (A498 renal) | TGI (A549 NSCLC) | TGI (ACHN renal) | TGI (CAKI-1 renal) | TGI (DU-145 prostate) | TGI (HOP-62 NSCLC) | TGI (HOP-92 NSCLC) | TGI (K-562 leukemia) | TGI (LOX IMVI melanoma) | TGI (MDA-MB-231 breast) | TGI (MOLT-4 leukemia) | TGI (NCI-H23 lung) | TGI (NCI-H460 lung) | TGI (RXF 393 renal) | TGI (SNB-19 CNS) | TGI (SNB-75 CNS) | TGI (TK-10 renal) | TGI (RPMI-8226 leukemia)
1 | c1ccc(-c2cs[s+]c2)cc1 | > 100 µM | > 100 µM | > 100 µM | > 100 µM | > 100 µM | > 100 µM | > 100 µM | > 100 µM | > 100 µM | > 100 µM | 85.6 µM | > 100 µM | > 100 µM | > 100 µM | > 100 µM | > 100 µM | > 100 µM | –
2 | N#CCCSC1SC(=C2SC3=C(SCCS3)S2)SC1SCCC#N (stereo not drawn) | > 100 µM | > 100 µM | > 100 µM | > 100 µM | > 100 µM | > 100 µM | > 100 µM | > 100 µM | > 100 µM | > 100 µM | > 100 µM | > 100 µM | > 100 µM | > 100 µM | > 100 µM | – | > 100 µM | –
3 | COc1ccc(C(=O)c2sc(Nc3ccccc3)nc2N)cc1 | > 100 µM | > 100 µM | > 100 µM | – | > 100 µM | > 80.2 µM | > 100 µM | > 100 µM | > 100 µM | > 100 µM | > 100 µM | > 100 µM | > 100 µM | > 100 µM | > 100 µM | – | > 100 µM | > 100 µM
4 | C=C1CCC2CC1[C@@H](C(=O)c1c[nH]c3ccccc13)NC2(C)C (stereo partly drawn) | > 37.5 µM | > 37.5 µM | > 37.5 µM | > 37.5 µM | > 37.5 µM | > 37.5 µM | 31 µM | > 37.5 µM | > 37.5 µM | > 37.5 µM | > 37.5 µM | > 37.5 µM | > 37.5 µM | > 37.5 µM | – | > 37.5 µM | > 37.5 µM | > 37.5 µM
5 | CCCCCCCCCCCCCCCCCCNc1ccn(C2OC(CO)C(O)C2O)c(=O)n1 (stereo not drawn) | > 100 µM | > 100 µM | > 100 µM | > 100 µM | > 100 µM | > 100 µM | > 100 µM | > 100 µM | > 100 µM | > 100 µM | > 49.7 µM | > 100 µM | > 100 µM | > 100 µM | > 100 µM | > 100 µM | > 100 µM | > 100 µM
6 | C/C(=N\Nc1ccccc1Br)c1cccc(/C(C)=N/Nc2ccccc2Br)n1 | > 100 µM | > 100 µM | > 100 µM | > 100 µM | > 100 µM | > 100 µM | > 100 µM | > 100 µM | > 100 µM | > 100 µM | > 100 µM | > 100 µM | > 100 µM | 42.4 µM | > 100 µM | 36.8 µM | > 100 µM | > 100 µM
7 | O=c1c2c(c1=O)C1(SCCCS1)c1cc(Cl)ccc1O2 | > 100 µM | > 100 µM | > 100 µM | > 100 µM | > 100 µM | > 100 µM | > 100 µM | > 100 µM | > 100 µM | > 100 µM | > 100 µM | > 100 µM | > 100 µM | > 100 µM | > 100 µM | > 100 µM | > 100 µM | > 100 µM
8 | CCN(CC)CCC1CCCCN1CC(=O)N1c2ccccc2NC(=O)c2ccccc21 (stereo not drawn) | > 100 µM | > 100 µM | > 100 µM | > 100 µM | > 100 µM | > 100 µM | > 100 µM | > 100 µM | > 100 µM | > 100 µM | > 100 µM | > 100 µM | > 100 µM | > 100 µM | > 100 µM | 92.6 µM | > 100 µM | > 100 µM
9 | COc1ccc(N=Nc2ccc3oc(=O)c(C(=O)Nc4ccccc4)cc3c2)cc1 | > 10 µM | > 10 µM | > 10 µM | > 10 µM | > 10 µM | > 10 µM | > 10 µM | – | > 10 µM | > 10 µM | > 10 µM | > 10 µM | > 10 µM | > 10 µM | > 10 µM | > 10 µM | > 10 µM | > 10 µM
10 | COc1cc(NCc2ccc3nc(-c4ccccc4)c(N)nc3c2)cc(OC)c1OC | 75.3 µM | 83.8 µM | > 100 µM | 85.8 µM | 99.6 µM | > 100 µM | 78.1 µM | > 100 µM | > 100 µM | > 100 µM | 58.6 µM | 62.3 µM | > 100 µM | 58.9 µM | > 100 µM | 73.5 µM | > 100 µM | –
11 | C=CC(C)(C)C(=C)C(=O)N(C)c1ccccc1I | > 100 µM | > 100 µM | > 100 µM | > 100 µM | > 100 µM | > 100 µM | > 100 µM | > 100 µM | > 100 µM | > 100 µM | > 100 µM | > 100 µM | > 100 µM | > 100 µM | > 100 µM | > 100 µM | > 100 µM | > 100 µM
12 | CCCc1c(O)c(=O)c2c(OC)cc(OC)c3c4c(OC)cc(OC)c5c(=O)c(O)c(CCC)c(c1c23)c54 | 11.9 µM | 13.1 µM | 3.58 µM | 2.32 µM | 3.73 µM | 8.11 µM | 2.55 µM | 0.589 µM | 1.86 µM | 7.09 µM | 1.23 µM | 3.16 µM | 2.31 µM | 28 µM | 12.7 µM | 3.53 µM | 15.8 µM | 1.11 µM
13 | N#CCC(=O)c1cc(OCc2cc(OCc3ccc(Br)cc3)cc(OCc3ccc(Br)cc3)c2)cc(OCc2cc(OCc3ccc(Br)cc3)cc(OCc3ccc(Br)cc3)c2)c1 | > 100 µM | > 100 µM | > 100 µM | > 100 µM | > 100 µM | > 100 µM | > 100 µM | > 100 µM | – | > 100 µM | – | > 100 µM | > 100 µM | – | > 100 µM | > 100 µM | > 100 µM | > 100 µM
